Consider one compound from patent US7153961B2, “Salt and crystalline form thereof of a corticotropin releasing factor receptor antagonist” (Bristol-Myers Squibb Pharma Co., priority 2003, dated 2006).

Data set [1] is described as follows: hygroscopicity (uptake at 90% relative humidity). In kind it is physicochemical.
A short description of data set [2]: solubility. In kind it is physicochemical. Particulars: in e.g., polar solvents, water, glycols, and aqueous mixtures.

`COCCN(CCOC)c1nc(C)nc2c(-c3ccc(OC)cc3C)c(C)nn12.O=S(=O)(O)c1ccccc1` [polymorph H-1, 4-(bis(2-methoxyethyl)amino)-2,7-dimethyl-8-(2-methyl-4-methoxyphenyl)-[1,5-a]-pyrazolo-1,3,5-triazine benzenesulfonate]: the “hygroscopicity (uptake)” value in data set [1] is “less than 2%”. Further, in data set [2], the solubility entry is “soluble”.
